Results published in patent publication US10722489B2, “D-3-phosphoglycerate dehydrogenase allosteric inhibitor and use thereof” (Peking University, priority 2016, dated 2020).

What was measured:
[1] = system: PHGDH-insensitive breast cancer cells MDA-MB-231; test: MTT cell viability assay, MDA-MB-231; format: cell-based; conditions: Homo sapiens, 72 h
Source text: (§1) The biological activities of the compounds at the cellular level were investigated. A series of cancer cells and normal mammary epithelial cells were selected, and the experimental method of MTT (3-(4,5)-dimethylthiahiazo (-z-y 1)-3,5-di-phenytetrazoliumromide) was used.
(§2) The specific method: firstly, PHGDH-sensitive breast cancer cells MDA-MB-468 (5,000 cells/well) and HCC70 (5,000 cells/well), PHGDH-insensitive breast cancer cells MCF-7 (3,000 cells/well), MDA-MB-231 (2,000 cells/well) and ZR-75-1 (4,000 cells/well), colon cancer cell DLD-1 (2,000 cells/well) and normal breast epithelial cells MCF-10A (3,000 cells/well) in the exponential growth were plated into 96-well culture plates and treated in triplicate with or without various concentrations of activated compounds from the enzymatic bioassays. They adhered to the wall over night. The compounds were added from stock solutions in DMSO and the final concentration of DMSO in the medium was 0.2%. After 72 h, 20 μL 5 mg/ml MTT was added to each well and incubated for at least 4 h. […] The number of viable cells was assessed by spectrophotometry at 570 nm, and calculated as the percentage of absorbance of treated cells relative to that of solvent controls. Results were expressed as a percentage of viable cells and the EC50 was calculated by using the Hill equation.

[2] = system: PHGDH-insensitive breast cancer cells MCF-7; test: MTT cell viability assay, MCF-7; format: cell-based; conditions: Homo sapiens, MCF7, 72 h
Source text: as §1, §2

[3] = system: colon cancer cell DLD-1; test: MTT cell viability assay, DLD-1; format: cell-based; conditions: Homo sapiens, 72 h, colon cancer cells
Source text: as §1, §2

[4] = system: PHGDH-insensitive breast cancer cells ZR-75-1; test: MTT cell viability assay, ZR-75-1; format: cell-based; conditions: Homo sapiens, 72 h
Source text: as §1, §2

[5] = system: PHGDH-sensitive breast cancer cells MDA-MB-468; test: MTT cell viability assay, MDA-MB-468; format: cell-based; conditions: Homo sapiens, 72 h
Source text: as §1, §2

[6] = system: normal breast epithelial cells MCF-10A; test: MTT cell viability assay, MCF-10A; format: cell-based; conditions: Homo sapiens, 72 h
Source text: as §1, §2

[7] = system: PHGDH-sensitive breast cancer cells HCC70; test: MTT cell viability assay, HCC70; format: cell-based; conditions: Homo sapiens, 72 h
Source text: as §1, §2

[8] = system: MDA-MB-468 Cells; test: Cell cycle analysis by PI staining and flow cytometry; format: cell-based; conditions: MDA-MB-468, 24 h, various concentrations
Method: MDA-MB-468 Cells (300,000 cells/well) in exponential growth were plated into 6-well culture plates and then treated in triplicate with or without various concentrations of PKUMDL-WL-2101. After 24 h, cells were harvested by trypsinization and centrifuged, and then fixed in 70% ice-cold ethanol, washed twice with 1×PBS, and kept at 4° C. overnight. The fixed cells were afterwards washed in 1×PBS and resuspended in 1×PBS containing 0.5% triton-x-100, 50 μg/ml Prodiumiodide (PI) and 50 μg/ml DNase-free RNase. The cell suspension was incubated in the dark for 30 min at 37° C. and analyzed by using a BD FACSCanto™ cytometer.

[9] = system: MDA-MB-468 xenografts; test: Mouse xenograft model, compounds injected separately; format: in vivo; conditions: 20 mg/kg/day IP; for inhibitory effects on MDA-MB-468 xenografts (tumor volume): after 30 days of drug delivery, vs vehicle; for tolerability (body weight): over the course of the experiments
Method: All animal experiments were performed in compliance with guidelines of the Animal Welfare Act and the guide for the care and use of laboratory animals following protocols approved by the Institutional Animals Care and Use Committee (IACUC). […] The tumor volumes were measured every two days and calculated by using the following formula width^2 (mm)×length (mm)×0.5.

[10] = molecular target: recombinant PHGDH (Homo sapiens (Human), UniProt O43175); test: In vitro enzymatic activity of PHGDH by fluorescence kinetic method; format: biochemical; conditions: recombinant PHGDH 30 ng/μL, NADH fluorescence at 456 nm
recombinant PHGDH, sequence (O43175 whole entry): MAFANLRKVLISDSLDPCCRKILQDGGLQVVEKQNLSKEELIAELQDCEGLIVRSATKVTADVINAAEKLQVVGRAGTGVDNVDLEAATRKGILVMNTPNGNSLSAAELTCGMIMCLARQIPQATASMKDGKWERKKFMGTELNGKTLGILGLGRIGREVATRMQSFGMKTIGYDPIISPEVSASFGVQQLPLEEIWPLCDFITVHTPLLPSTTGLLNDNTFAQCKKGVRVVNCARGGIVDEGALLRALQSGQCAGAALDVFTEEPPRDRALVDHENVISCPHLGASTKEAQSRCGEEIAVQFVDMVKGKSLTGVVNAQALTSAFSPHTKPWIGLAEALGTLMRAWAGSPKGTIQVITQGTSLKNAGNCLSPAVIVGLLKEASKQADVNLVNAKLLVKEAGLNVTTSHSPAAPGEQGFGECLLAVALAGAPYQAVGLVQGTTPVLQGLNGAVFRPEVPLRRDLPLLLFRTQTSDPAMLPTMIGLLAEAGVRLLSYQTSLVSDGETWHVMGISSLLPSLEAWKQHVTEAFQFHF
Method: The activity of recombinant PHGDH was measured by monitoring the reduced nicotinamideadenine dinucleotide (NADH) to nicotinamideadenine dinucleotide (NAD^+) change in fluorescence emission at 456 nm. PHGDH (final concentration of 30 ng/μL) was first pre-incubated with enzyme samples in the assay buffer (25 mM HEPES, pH 7.1, 400 mM KCl, 5 μM phosphopyridoxa (PLP), 0.5 mM α-ketoglutarate, 150 μM NADH, PSAT1) for 10 min in 96-well plate, then 10 μL of DMSO (control) or a small molecule of DMSO solution was added, shaken at 550 rpm for 5 minutes at 25° C. and balanced for 5 minutes. […] The reaction was started by adding L-phospho-O-serine (Pser) solution. The UV-visible microplate reader was used to monitor the change of NADH consumption at 456 nm with time. Protein activity was assessed by using an initial rate of reaction within 30 s, at which time NADH consumption was linear over time. The enzymatic inhibition ability of sixty-three compounds was first measured at 50 μM, compounds with percentage inhibition of PHGDH larger than 50% were selected for further studies, and IC50 values were obtained (Table 3).

SMILES: O=C(N/N=C/c1cc([N+](=O)[O-])ccc1O)c1ccc(O)cc1O [PKUMDL-WL-2101, (E)-2,4-dihydroxy-N′-(2-hydroxy-5-nitrobenzylidene)benzohydrazide]
- EC50 [1]: 27.7 µM
- EC50 [2]: 139 µM
- EC50 [3]: 18.3 µM
- EC50 [4]: 83.4 µM
- EC50 [5]: 7.7 µM
- EC50 [6]: 45.8 µM
- EC50 [7]: 10.8 µM
- effect on cell cycle [8]: arrested the cell cycle at the G0/G1-phase in a dose-dependent manner
- inhibitory effects on MDA-MB-468 xenografts (tumor volume) [9]: substantial inhibitory effects
- tolerability (body weight) [9]: maintain normal body weight
- IC50 [10]: 34.8 ± 3.6 µM

SMILES: O=C(N/N=C/c1cc([N+](=O)[O-])ccc1O)c1ccc(C(F)(F)F)cc1 [PKUMDL-WL-2128]
- IC50 [10]: 36.1 ± 4.2 µM

SMILES: CCNC(=S)N/N=C\c1ccc(-c2ccc(C(=O)O)c(Cl)c2)o1 [PKUMDL-WL-2201, (Z)-2-chloro-4-(5-((2-(ethylcarbamothioyl) hydrazono)methyl)furan-2-yl) benzoic acid]
- EC50 [1]: > 200 µM
- EC50 [2]: > 200 µM
- EC50 [3]: 167 µM
- EC50 [4]: 125 µM
- EC50 [5]: 6.9 µM
- EC50 [6]: 64.7 µM
- EC50 [7]: 10 µM
- effect on cell cycle [8]: arrested the cell cycle at the G0/G1-phase in a dose-dependent manner
- inhibitory effects on MDA-MB-468 xenografts (tumor volume) [9]: substantial inhibitory effects
- tolerability (body weight) [9]: maintain normal body weight
- IC50 [10]: 35.7 ± 8.6 µM

SMILES: COC(=O)c1ccc(-c2ccc(/C=N/NC(=S)Nc3ccc([N+](=O)[O-])cc3)o2)cc1 [PKUMDL-WL-2212, (E)-Methyl 4-(5-((2-((4-nitrophenyl)carbamothioyl) hydrazono)methyl)furan-2-yl) benzoate]
- IC50 [10]: 29.8 ± 9.4 µM

SMILES: COC(=O)c1ccc(-c2ccc(/C=N/NC(=S)NN)o2)cc1 [PKUMDL-WL-2220, (E)-Methyl 4-(5-((2-(hydrazinecarbonothioyl) hydrazono)methyl)furan-2-yl) benzoate]
- IC50 [10]: 8.9 ± 1.8 µM

SMILES: NNC(=S)N/N=C/c1ccc(-c2ccc(C(=O)O)cc2)o1 [PKUMDL-WL-2222, (E)-4-(5-((2-(hydrazinecarbonothioyl) hydrazono)methyl)furan-2-yl) benzoic acid]
- IC50 [10]: 16.7 ± 1.6 µM

SMILES: NNC(=S)N/N=C/c1ccc(-c2ccc(S(N)(=O)=O)cc2)o1 [PKUMDL-WL-2225, (E)-4-(5-((2-(hydrazinecarbonothioyl) hydrazono)methyl)furan-2-yl) benzenesulfonamide]
- IC50 [10]: 38.9 ± 1.2 µM

SMILES: CCNC(=S)N/N=C/c1ccc(-c2ccc(C(=O)O)cc2)o1 [PKUMDL-WL-2226, (E)-4-(5-((2-(ethylcarbamothioyl) hydrazono)methyl)furan-2-yl) benzoic acid]
- IC50 [10]: 35.5 ± 1.1 µM

SMILES: CCNC(=S)N/N=C/c1ccc(-c2ccc([N+](=O)[O-])cc2)o1 [PKUMDL-WL-2228, (E)-N-ethyl-2-((5-(4-nitrophenyl)furan-2-yl)methylene) hydrazinecarbothioamide]
- IC50 [10]: 37 ± 2.8 µM

SMILES: CCNC(=S)N/N=C/c1ccc(-c2ccc(O)cc2)o1 [PKUMDL-WL-2229, (E)-N-ethyl-2-((5-(4-hydroxyphenyl)furan-2-yl)methylene) hydrazinecarbothioamide]
- IC50 [10]: 30.3 ± 4.5 µM
